The results in this text go back to US6486151B2, “N-oxides of heterocyclic esters, amides, thioesters, and ketones” (GPI NIL Holdings Inc., priority 1997, dated 2002).

Series [1] deals with chick dorsal root ganglia. The series is described as follows: Chick dorsal root ganglion cultures and neurite growth. It counts as cell-based. Conditions: Gallus gallus; chick embryo DRG explants, 48 hours after drug treatment; read-out: ED50 (neurite outgrowth). How it is done:
Dorsal root ganglia were dissected from chick embryos of ten day gestation. Whole ganglion explants were cultured on thin layer Matrigel-coated 12 well plates with Liebovitz L15 plus high glucose media supplemented with 2 mM glutamine and 10% fetal calf serum, and also containing 10 μM cytosine β-D arabinofuranoside (Ara C) at 37° C. in an environment containing 5% CO2. Twenty-four hours later, […] Forty-eight hours after drug treatment, the ganglia were visualized under phase contrast or Hoffman Modulation contrast with a Zeiss Axiovert inverted microscope. Photomicrographs of the explants were made, and neurite outgrowth was quantified. Neurites longer than the DRG diameter were counted as positive, with total number of neurites quantitated per each experimental condition. Three to four DRGs are cultured per well, and each treatment was performed in duplicate.

The nature of series [2]: Liver microsomal assay (model of first pass metabolism). It counts as in vitro ADME, mouse. As for the experimental part:
(§1) In studies to directly asses the rate of metabolism of N-oxides, a mouse liver microsomal assay was used as described below to model first pass metabolism.
Liver microsomes from various species were purchased from a commercial supplier. The microsomes are characterized prior to shipment. The reaction mixture contained microsomes, 5 μM MgCl2, 1 mM NADP, 4 mM glucose-6-phosphate (G-6-P), and 1 unit/4 mL glucose-6-phosphate dehydrogenase (G-6-P DH). The final microsomal protein concentration for all studies was 0.2 mg/mL. Incubations were carried out for 1 hour in a shaking water bath (37° C.). The reaction was terminated by removing an aliquot from the reaction mixture and placing it in a tube with an equal volume of acetonitrile and the bioanalytical internal standard. The results of these experiments are presented as compound half-lives (t1/2) in Table II.
(In general: Liver microsomes are vesicles of endoplasmic reticulum, rich in cytochrome P450 enzymes.)

A further series relates to rabbit liver esterase. The series can be described thus: Esterase activity: degradation by purified rabbit liver esterase. It counts as in vitro ADME. As to conditions: for de-esterification by purified esterase (in words): purified esterification enzyme in vitro; for esterase degradation (rate of enzymatic degradation): purified rabbit liver esterase, 0.05 M Tris buffer pH 7.5, 2 hours. As for the experimental part:
as §1
Purified rabbit liver esterase was purchased from Sigma. Five (5) units of enzyme were placed in 2 mL of 0.05 M Tris buffer (pH 7.5). Incubations were performed for 2 hours. The reaction was terminated by removing an aliquot from the reaction mixture and placing it in a tube with an equal volume of acetonitrile and the bioanalytical internal standard. The results of these experiments are presented in Table II as rates of enzymatic degradation of the compounds.

In a further series the target is FKBP12 (Homo sapiens, UniProt P62942). The series can be described thus: Ki test procedure: inhibition of peptidyl-prolyl isomerase (rotamase) activity, chymotrypsin-coupled assay. It counts as biochemical. Conditions: FKBP, substrate N-succinyl-Ala-Ala-Pro-Phe-p-nitroanilide; read-out: Ki (apparent Ki, rotamase inhibition). An excerpt: As discussed above, the compounds of the present invention have an affinity for the FK506 binding protein, particularly FKBP12. The inhibition of the prolyl peptidyl cis-trans isomerase activity of FKBP may be measured as an indicator of this affinity.
Inhibition of the peptidyl-prolyl isomerase (rotamase) activity of the inventive compounds can be evaluated by known methods described in the literature (Harding, et al., Nature, 1989, 341 :758-760; Holt et al. J. Am. Chem. Soc., 115:9923-91938). The cis-trans isomerization of an alanine-proline bond in a model substrate, N-succinyl-Ala-Ala-Pro-Phe-p-nitroanilide, is monitored spectrophotometrically in a chymotrypsin-coupled assay, which releases para-nitroanilide from the trans form of the substrate. The inhibition of this reaction caused by the addition of different concentrations of inhibitor is determined, and the data is analyzed as a change in first-order rate constant as a function of inhibitor concentration to yield the apparent Ki values. […]
The absorbance at 390 nm versus time is monitored for 90 seconds using a spectrophotometer and the rate constants are determined from the absorbance versus time data files. […]

Series [3] relates to MPTP lesioning of dopaminergic neurons in mice. The series can be described thus: MPTP model of Parkinson's Disease: striatal TH innervation density. It counts as in vivo. As to conditions: MPTP 30 mg/kg i.p. 5 days, test compound 4 mg/kg s.c., FIG. 1. How it is done:
FIG. 1 is a bar graph showing Protection of Striatal TH Innervation Density from MPTP-toxicity by Concurrent Drug Dosing.
MPTP lesioning of dopaminergic neurons in mice is used as an animal model of Parkinson's Disease. Four week old male CD1 white mice are dosed i.p. with 30 mg/kg of MPTP for 5 days. Test compounds (4 mg/kg), or vehicle, are administered s.c. along with the MPTP for 5 days, as well as for an additional five days following cessation of MPTP treatment. At 18 days following MPTP treatment, the animals are sacrificed and the striata dissected and perfusion-fixed. Immunostaining is performed on sagittal and coronal brain sections using anti-tyrosine hydroxylase […] to quantitative survival and recovery of dopaminergic neurons. In animals treated MPTP and vehicle, a substantial loss of functional dopaminergic terminals is observed as compared to non-lesioned animals. Lesioned animals receiving test compounds show a significant recovery of TH-stained dopaminergic neurons. This model presents quantitation for the recovery of TH-positive dopaminergic neurons in the striatum of animals receiving of animals receiving the compounds of the present invention. Data for representative control and lesioned animals not receiving the test drugs is also presented against the data from the animals receiving the compounds of the present invention. […]

FKBP12, sequence (P62942 whole entry): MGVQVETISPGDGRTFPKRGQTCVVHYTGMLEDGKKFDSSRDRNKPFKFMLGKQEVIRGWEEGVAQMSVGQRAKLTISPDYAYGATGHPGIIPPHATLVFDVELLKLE

With `CCC(C)(C)C(=O)C(=O)N1CCC[C@H]1C(=O)OCCCc1cccnc1` [Parent, 3-(3-Pyridyl)-1-propyl (2S)-1-(3,3-Dimethyl-1,2-dioxopentyl)-2-pyrrolidinecarboxylate, reference compound], the EC50 in series [1] came to 0.05 nM. Moreover, the half-life in series [2] (mouse liver microsomes, 0.2 mg/mL protein, 37° C., 1 hour incubation, read-out: t1/2 (compound half-life in microsomal assay)) came out at 8.1 min. In the series with rabbit liver esterase, the “de-esterification by purified esterase (in words)” value is “significant degradation” and the “esterase degradation (rate of enzymatic degradation)” value amounted to 7521 pmol/min/mg protein.

For the compound `CCC(C)(C)C(=O)C(=O)N1CCC[C@H]1C(=O)OCCCc1ccc[n+]([O-])c1` [Example 1, 3-(3-Pyridyl)-1-propyl (2S)-1-(3,3-Dimethyl-1,2-dioxopentyl) -2-pyrrolidinecarboxylate, N-oxide], at FKBP12, the Ki is 225 nM. Also, in series [2] (mouse liver microsomal assay), the “half-life compared with parent compound (in words)” value was “significantly longer half-life than the parent compound”. In addition, in series [2] (mouse liver microsomes, 0.2 mg/mL protein, 37° C., 1 hour incubation), the “t1/2 (compound half-life in microsomal assay)” value is listed as 42.8 min. For the same compound, in the series with rabbit liver esterase, the “de-esterification by purified esterase (in words)” value is given as “limited de-esterification” and the “esterase degradation (rate of enzymatic degradation)” value worked out at 367 pmol/min/mg protein. Further, in series [3], the “protection / recovery of striatal TH-positive dopaminergic innervation (in words)” value is on record as “more potent in this in vivo model of neurodegeneration”.
